From ChEMBL document CHEMBL5728138, “Triazolo-pyrimidine compounds and uses thereof” (2020)

Assays:
Adenosine receptor A2a [1] = biological target: Adenosine receptor A2a (Homo sapiens, UniProt P29274); assay: Binding Affinities to Different Adenosine Receptors: The compounds at different concentrations were incubate with hA1 membrane (from PerkinElmer) and [3H]-8-Cyclopentyl-1,3-dipropylxanthine (DPCPX) for 50 min at 25° C., meanwhile 100 μL 0.5% PEI solution was added into […]-96 GF/B filter plate for 60 min at 4° C., then […]-96 GF/B filter plate was washed twice with 50 ml wash buffer, the membrane mix was transferred into […]-96 GF/B filter plate, and the filter plate was washed 4 times before incubated at 55° C. for 10 min. At last, […] ULTIMA GOLD was added into each well, and CPM was read by TopCount.The compounds at different concentrations were incubate with hA2a membrane (from PerkinElmer) and [3H]-CGS21680 for 90 min at 25° C., meanwhile 100 μL 0.5% PEI solution was added into […]-96 GF/B filter plate for 60 min at 4° C., then […]-96 GF/B filter plate was washed twice with 50 ml wash buffer, the membrane mix was transferred into […]-96 GF/B filter plate, and the filter plate was washed 4 times before incubated at 55° C. for 10 min. At last, […] ULTIMA GOLD was added into each well, and CPM was read by TopCount.The compounds at different concentrations were incubate with hA2b membrane (from PerkinElmer) and [3H]-DPCPX for 60 min at 27° C., and the binding reactions were stopped by rapid filtration through 0.5% BSA coated […]-96 GF/C plates using cell harvester. […]
Chain of Adenosine receptor A2a (Homo sapiens, UniProt P29274) (P29274 whole entry): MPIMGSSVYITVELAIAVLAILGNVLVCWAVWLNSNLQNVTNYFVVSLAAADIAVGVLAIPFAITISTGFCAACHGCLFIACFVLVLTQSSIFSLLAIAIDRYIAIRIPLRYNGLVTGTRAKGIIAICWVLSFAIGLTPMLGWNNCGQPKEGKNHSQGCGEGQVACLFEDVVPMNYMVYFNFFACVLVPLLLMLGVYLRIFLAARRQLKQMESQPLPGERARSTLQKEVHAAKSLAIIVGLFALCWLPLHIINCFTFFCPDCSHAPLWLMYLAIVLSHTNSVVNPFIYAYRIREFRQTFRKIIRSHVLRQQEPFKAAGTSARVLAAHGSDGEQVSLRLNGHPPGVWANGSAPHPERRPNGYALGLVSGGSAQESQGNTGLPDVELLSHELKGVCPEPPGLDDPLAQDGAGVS

Adenosine receptor A2a [2] = biological target: Adenosine receptor A2a (Mus musculus, UniProt Q60613); assay: (§1) FLIPR and cAMP Inhibition Assay: hADORA1/CHO (hA1 expressing) cells (Genscript) were plated at 1×10^4 cells/well into 384-well polystyrene plates one day before starting the experiment. On the day of experiment, the supernatant was discard and replaced with 40 µL of dye (FLIPR calcium 5 Assay Kit) per well and the plates were incubated for 60 mins at 37° C. plus 5% CO2. Then testing compounds were added at different concentrations for FLIPR™ inhibition assay. After a 400 s incubation with compound, […] was added into the cells, and the signal was captured by FLIPR.hA2a/CHO, hA2b/CHO and mA2a/CHO (Genscript) were plated at 5×10^3 cells/well into 384-well polystyrene plates at the day of experiment. Compounds were pre-incubated with cells for 30 min at 37° C., 5% CO2. Then […] was added to the cells and incubated for 30 min at 37° C., 5% CO2. Detection reagent (CISBIO) was added and the plates were incubated for 60 min at room temperature. The signal was captured by Envision.
Chain of Adenosine receptor A2a (Mus musculus, UniProt Q60613) (Q60613 whole entry): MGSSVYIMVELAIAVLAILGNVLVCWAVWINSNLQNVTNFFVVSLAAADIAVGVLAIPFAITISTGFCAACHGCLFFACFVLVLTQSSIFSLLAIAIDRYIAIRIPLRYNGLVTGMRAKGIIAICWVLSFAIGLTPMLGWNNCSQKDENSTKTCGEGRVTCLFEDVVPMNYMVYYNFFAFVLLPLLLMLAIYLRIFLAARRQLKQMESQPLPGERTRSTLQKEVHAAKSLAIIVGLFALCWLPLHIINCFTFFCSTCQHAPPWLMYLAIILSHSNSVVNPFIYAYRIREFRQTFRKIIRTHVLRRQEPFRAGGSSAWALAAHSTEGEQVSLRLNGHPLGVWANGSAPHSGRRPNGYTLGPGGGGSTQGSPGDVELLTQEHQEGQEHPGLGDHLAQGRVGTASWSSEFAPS

Adenosine receptor A2b = biological target: T1, Adenosine receptor A2b (Homo sapiens, UniProt P29275); assay: as §1
T1 sequence (P29275 whole entry): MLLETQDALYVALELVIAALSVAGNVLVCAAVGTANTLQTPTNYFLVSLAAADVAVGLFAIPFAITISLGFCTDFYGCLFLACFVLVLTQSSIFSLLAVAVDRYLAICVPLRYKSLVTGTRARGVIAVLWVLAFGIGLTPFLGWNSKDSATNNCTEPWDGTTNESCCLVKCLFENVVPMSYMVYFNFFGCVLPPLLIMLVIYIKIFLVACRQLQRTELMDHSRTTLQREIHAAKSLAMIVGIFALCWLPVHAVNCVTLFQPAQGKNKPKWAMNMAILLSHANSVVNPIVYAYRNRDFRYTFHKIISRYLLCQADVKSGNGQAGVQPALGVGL

Adenosine receptor A1 = biological target: T2, Adenosine receptor A1 (Homo sapiens, UniProt P30542); assay: as §1
T2 sequence (P30542 whole entry): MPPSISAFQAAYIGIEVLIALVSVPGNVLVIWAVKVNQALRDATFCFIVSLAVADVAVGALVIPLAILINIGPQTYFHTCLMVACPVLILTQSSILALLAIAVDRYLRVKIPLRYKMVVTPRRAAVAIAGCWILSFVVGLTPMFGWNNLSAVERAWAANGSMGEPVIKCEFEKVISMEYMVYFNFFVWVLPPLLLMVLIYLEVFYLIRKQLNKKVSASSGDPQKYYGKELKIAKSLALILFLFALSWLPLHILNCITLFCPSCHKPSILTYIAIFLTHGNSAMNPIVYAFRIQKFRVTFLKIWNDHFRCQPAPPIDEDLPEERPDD

Structure (SMILES): Cc1cnc2ccc(-c3c(N4CCOCC4)nc(N)n4nc(Cc5c(F)cccc5F)nc34)cn12
- IC50 (Adenosine receptor A2a [1]): 0.2 nM
- IC50 (Adenosine receptor A2a [2]): 2.9 nM
- IC50 (Adenosine receptor A2b): 44.5 nM

Structure (SMILES): Nc1nc(-n2ccnn2)c(-c2ccc3nccn3c2)c2nc(Cc3ncccc3F)nn12
- IC50 (Adenosine receptor A2a [1]): 103 nM
- IC50 (Adenosine receptor A1): 779 nM
- IC50 (Adenosine receptor A2a [2]): 170 nM
- IC50 (Adenosine receptor A2b): 1110 nM
